Assay results as given in patent US20180312493A1, “Antibiotic Compounds, Pharmaceutical Formulations Thereof And Methods And Uses Therefor” (Simon Fraser University, priority 2015, published 2018).
In brackets after ≈: the same amount, converted by molar mass. Like-named read-outs stand apart in the source and are kept apart here.

Key:
MRSA (ATCC BAA-1762) = test: In vitro susceptibility, broth microdilution (MIC); assay type: cell-based, methicillin resistant S. aureus; settings: Staphylococcus aureus; MRSA ATCC BAA-1762; read-out: Antimicrobial activity (MIC) MRSA ATCC BAA1762
From the text: (§1) Epidemic methicillin resistant S. aureus (MRSA) strain sequenced at the Sanger Centre (MRSA252, NRS71) was obtained from NARSA (Network on Antimicrobial Resistance in S. aureus). Methicillin sensitive S. aureus (ATCC 29213 and 25923), methicillin resistant S. aureus (ATCC BAA-1762), and Salmonella typhimurium (ATCC BAA-185) were obtained from ATCC, The Global Bioresource Center. Acinetobacter baumannii (ATCC 19606 and ATCC 17978), Klebsiella pneumonia (C238), vancomycin resistant Enterococci #2 (2010A) (VRE#2), MRSA (USA400, MW2) and Pseudomonas aeruginosa (PA0-1) were obtained from the laboratory of Dr B. B. Finlay at the University of British Columbia (Vancouver, Canada).
(§2) The antimicrobial activities of PK inhibitor candidates were determined using the 96-well microtiter standard 2-fold serial broth microdilution method as described by CLSI (formerly NCCLS) with the various gram-positive and gram-negative bacteria species mentioned above. Bacteria from a single colony were grown, overnight in either BHI Broth (VRE), mueller hinton broth (S. aureus 29213; MRSA USA400, A. baumannii 19606, MRSA BAA-1762) or L-broth (P. aeruginosa, S. typhimurium, K. pneumonia and A. baumannii 17978). Each compound was prepared in DMSO with 2-fold serial dilutions to give a final concentration of, 0.031 to 64 μg/ml. 10 μl of the compound solution was then added, in duplicate, to either, 190 μl of cation adjusted mueller hinton broth (CAMHB) or 190 μl CAMHB containing ˜2.5×10^5 CFU/ml of bacteria (final compound concentration 0.031 to 64 μg/ml). Culture plates were incubated for 18-24 h at 37° C., and optical density at 600 nm (OD600) was measured using a Benchmark Plus™ microplate spectrophotometer (Bio-Rad™). The absorbance control values for the series containing CAMHB and inhibitor were subtracted as background from the corresponding infected wells. Minimal inhibitory concentration (MIC) was defined as the lowest concentration of test compound leading to complete inhibition of cell growth in relation to compound-free control wells as determined by optical density. Vancomycin, methicillin and ciprofloxicin were used as reference compounds. All assays were run in triplicate or duplicate. Experiments were replicated at least twice to verify reproducibility using the above conditions.

S. aureus (ATCC29213) = test: In vitro susceptibility, broth microdilution (MIC); assay type: cell-based; settings: Staphylococcus aureus
Procedure, shortened: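 CLSI 2-fold serial broth microdilution; K. pneumoniae C238 grown in L-broth, S. aureus ATCC 29213 in Mueller Hinton broth, plates incubated 18–24 h at 37 °C. MIC taken as lowest concentration giving complete growth inhibition by OD600 versus compound-free wells, background-subtracted.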

VRE#2 (2010A) = test: In vitro susceptibility, broth microdilution (MIC); assay type: cell-based, vancomycin resistant Enterococci; settings: VRE#2 (2010A); read-out: Antimicrobial activity (MIC) VRE#2
From the text: as §1, §2

MRSA Pyk = molecular target: T1, MRSA Pyk (Staphylococcus aureus, UniProt Q6GG09); test: MRSA pyruvate kinase (PK) activity, continuous LDH-coupled assay; assay type: biochemical, methicillin resistant S. aureus (MRSA252)
T1 construct: made in house; host or cells: E. coli BL-21 (DE3)
T1 sequence (Q6GG09 whole entry): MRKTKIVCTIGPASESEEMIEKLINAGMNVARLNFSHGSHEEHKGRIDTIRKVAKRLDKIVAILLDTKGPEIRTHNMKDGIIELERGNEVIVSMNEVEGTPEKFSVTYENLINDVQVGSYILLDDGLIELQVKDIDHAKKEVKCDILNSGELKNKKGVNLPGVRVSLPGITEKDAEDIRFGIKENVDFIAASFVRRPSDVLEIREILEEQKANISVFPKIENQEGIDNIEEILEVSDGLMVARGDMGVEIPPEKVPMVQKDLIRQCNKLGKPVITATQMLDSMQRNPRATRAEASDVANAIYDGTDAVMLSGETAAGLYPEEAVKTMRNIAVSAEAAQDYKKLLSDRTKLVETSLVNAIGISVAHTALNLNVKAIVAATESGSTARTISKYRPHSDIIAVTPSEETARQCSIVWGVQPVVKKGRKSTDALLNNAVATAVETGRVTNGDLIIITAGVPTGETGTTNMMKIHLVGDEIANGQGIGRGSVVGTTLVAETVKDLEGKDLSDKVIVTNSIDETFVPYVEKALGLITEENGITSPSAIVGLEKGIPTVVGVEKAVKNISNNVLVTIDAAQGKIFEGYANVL
Procedure, shortened: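 Activity monitored continuously as absorbance change at 340 nm from NADH oxidation via coupled lactate dehydrogenase, reactions started with 15 nM recombinant His-tagged PK (MRSA or human isoform) and run at 30° C for up to 5 min. Ki derived by varying inhibitor (0-400 nM) and PEP (2-20 mM) at 2 mM ADP; IC50 by four-parameter fitting.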

[1] = S. aureus ATCC29213, 18-24 h, 37 C, read-out: Antimicrobial activity (MIC) S. aureus ATCC29213

## Cc1ccc2sc(NC(=O)Nc3ccc(Cl)cc3)nc2c1 [Compound 170, 1-(4-chlorophenyl)-3-(5-methylbenzo[d]thiazol-2-yl)urea]
MRSA (ATCC BAA-1762)
  MIC: 2 µg/mL (≈ 6.29 µM)
S. aureus (ATCC29213); [1]
  MIC: 4 µg/mL (≈ 12.6 µM)

## COC(=O)c1c(NS(=O)(=O)c2ccc(Cl)cc2)[nH]c2cc(Br)ccc12 [Compound 182, Methyl 6-bromo-2-((4-chlorophenyl)sulfonamido)-1H-indole-3-carboxylate]
VRE#2 (2010A)
  MIC: 64 µg/mL (≈ 144 µM)
MRSA (ATCC BAA-1762)
  MIC: 0.5 µg/mL (≈ 1.13 µM)
S. aureus (ATCC29213); [1]
  MIC: 8 µg/mL (≈ 18 µM)

## CN1CCN(CCNC(=O)c2c(-c3cc4cc(Cl)ccc4[nH]3)[nH]c3cc(Br)ccc23)C(c2ccccc2)C1 (stereo not drawn) [Compound 139, 6-Bromo-5′-chloro-N-(2-(4-methyl-2-phenylpiperazin-1-yl)ethyl)-1H,1′H-[2,2′-biindole]-3-carboxamide]
MRSA Pyk
  IC50: < 100 nM
VRE#2 (2010A)
  MIC: 8 µg/mL (≈ 13.5 µM)
MRSA (ATCC BAA-1762)
  MIC: 8 µg/mL (≈ 13.5 µM)
S. aureus (ATCC29213); [1]
  MIC: 4 µg/mL (≈ 6.77 µM)

## CCCC(=O)OC1CCN(CCNC(=O)c2c(/C=C/c3ccc(Cl)cc3)[nH]c3cc(Br)ccc23)CC1 [Compound 57, (E)-1-(2-(6-Bromo-2-(4-chlorostyryl)-1H-indole-3-carboxamido)ethyl)piperidin-4-yl Butyrate]
MRSA Pyk
  IC50: 100 to 1000 nM
VRE#2 (2010A)
  MIC: > 64 µg/mL
S. aureus (ATCC29213); [1]
  MIC: > 64 µg/mL

## CC(=O)Nc1nc2cc(Br)ccc2s1 [Compound 175, N-(5-bromobenzo[d]thiazol-2-yl)acetamide]
VRE#2 (2010A)
  MIC: 32 µg/mL (≈ 118 µM)
MRSA (ATCC BAA-1762)
  MIC: 16 µg/mL (≈ 59 µM)
S. aureus (ATCC29213); [1]
  MIC: 32 µg/mL (≈ 118 µM)

## O=C(Nc1ccc(Cl)cc1)c1[nH]c2cc(Br)ccc2c1C(=O)NCCN1CCNCC1 [Compound 80, 6-Bromo-N2-(4-chlorophenyl)-N3-(2-(piperazin-1-yl)ethyl)-1H-indole-2,3-dicarboxamide]
MRSA Pyk
  IC50: < 100 nM
S. aureus (ATCC29213); [1]
  MIC: > 64 µg/mL

## N[C@@H](CCCCNC(=O)c1c(/C=C/c2ccc(Cl)cc2)[nH]c2cc(Br)ccc12)C(=O)O [Compound 54, (S,E)-2-Amino-6-(6-bromo-2-(4-chlorostyryl)-1H-indole-3-carboxamido)hexanoic Acid]
MRSA Pyk
  IC50: < 100 nM
S. aureus (ATCC29213); [1]
  MIC: > 64 µg/mL

## O=C(O)CCNC(=O)c1c(/C=C/c2ccc(Cl)cc2)[nH]c2cc(Br)ccc12 [Compound 39, (E)-3-(6-Bromo-2-(4-chlorostyryl)-1H-indole-3-carboxamido)propanoic Acid]
MRSA Pyk
  IC50: < 100 nM
S. aureus (ATCC29213); [1]
  MIC: > 64 µg/mL

## O=C(NCCN1CCN(C(=O)CCC(=O)N2CCN(CCNC(=O)c3c(/C=C/c4ccc(Cl)cc4)[nH]c4cc(Br)ccc34)CC2)CC1)c1c(/C=C/c2ccc(Cl)cc2)[nH]c2cc(Br)ccc12 [Compound 55, (E)-N,N′-((4,4′-succinylbis(piperazine-4,1-diyl))bis(ethane-2,1-diyl))bis(6-bromo-2-((E)-4-chlorostyryl)-1H-indole-3-carboxamide)]
MRSA Pyk
  IC50: > 1000 nM
S. aureus (ATCC29213); [1]
  MIC: > 64 µg/mL

## O=C(NC(CO)CO)c1c(/C=C/c2ccc(Cl)cc2)[nH]c2cc(Br)ccc12 [Compound 32, (E)-6-Bromo-2-(4-chlorostyryl)-N-(1,3-dihydroxypropan-2-yl)-1H-indole-3-carboxamide]
MRSA Pyk
  IC50: < 100 nM
S. aureus (ATCC29213); [1]
  MIC: > 64 µg/mL

## CS(=O)(=O)OCCOc1cc2[nH]c(-c3cc4ccc(Br)cc4[nH]3)cc2cc1Cl [Compound 198, 2-((6′-Bromo-5-chloro-1H,1′H-[2,2′-biindol]-6-yl)oxy)ethyl Methanesulfonate]
MRSA Pyk
  IC50: < 100 nM
S. aureus (ATCC29213); ATCC29213, read-out: Antimicrobial activity (MIC) S. aureus ATCC29213
  MIC: > 64 µg/mL

## N#Cc1c(/C=C/c2ccc(Cl)cc2)[nH]c2cc(Br)ccc12 [Compound 67, (E)-6-Bromo-2-(4-chlorostyryl)-1H-indole-3-carbonitrile]
MRSA Pyk
  IC50: > 1000 nM
S. aureus (ATCC29213); [1]
  MIC: > 64 µg/mL

## OC(c1c(/C=C/c2ccc(Cl)cc2)[nH]c2cc(Br)ccc12)C(F)(F)F (stereo not drawn) [Compound 16, (E)-1-(6-Bromo-2-(4-chlorostyryl)-1H-indol-3-yl)-2,2,2-trifluoroethanol]
MRSA Pyk
  IC50: < 100 nM
S. aureus (ATCC29213); [1]
  MIC: 1 µg/mL (≈ 2.32 µM)

## CN(C)C(=O)c1c(/C=C/c2ccc(Cl)cc2)[nH]c2cc(Br)ccc12 [Compound 21, (E)-6-Bromo-2-(4-chlorostyryl)-N,N-dimethyl-1H-indole-3-carboxamide]
MRSA Pyk
  IC50: < 100 nM
S. aureus (ATCC29213); [1]
  MIC: > 64 µg/mL

## O=C(c1c(/C=C/c2ccc(Cl)cc2)[nH]c2cc(Br)ccc12)C1CC1 [Compound 2, (E)-(6-Bromo-2-(4-chlorostyryl)-1H-indol-3-yl)(cyclopropyl)methanone]
MRSA Pyk
  IC50: < 100 nM
S. aureus (ATCC29213); [1]
  MIC: 2 µg/mL (≈ 4.99 µM)

## NC(=NO)c1c(/C=C/c2ccc(Cl)cc2)[nH]c2cc(Br)ccc12 [Compound 68, 6-Bromo-2-((E)-4-chlorostyryl)-N′-hydroxy-1H-indole-3-carboximidamide]
MRSA Pyk
  IC50: < 100 nM
S. aureus (ATCC29213); [1]
  MIC: 8 µg/mL (≈ 20.5 µM)

## O=C(c1c(/C=C/c2ccc(Cl)cc2)[nH]c2cc(Br)ccc12)C1CCOCC1 [Compound 1, (E)-(6-Bromo-2-(4-chlorostyryl)-1H-indol-3-yl)(tetrahydro-2H-pyran-4-yl)methanone]
MRSA Pyk
  IC50: < 100 nM
S. aureus (ATCC29213); [1]
  MIC: > 64 µg/mL

## CC(C)(C)OC(=O)COc1cc2[nH]c(-c3cc4ccc(Br)cc4[nH]3)cc2cc1Cl [Compound 186, tert-Butyl 2-((6′-bromo-5-chloro-1H,1′H-[2,2′-biindol]-6-yl)oxy)acetate]
MRSA Pyk
  IC50: < 100 nM
S. aureus (ATCC29213); [1]
  MIC: > 64 µg/mL

## FC(F)(F)c1c(/C=C/c2ccc(Cl)cc2)[nH]c2cc(Br)ccc12 [Compound 65, (E)-6-Bromo-2-(4-chlorostyryl)-3-(trifluoromethyl)-1H-indole]
MRSA Pyk
  IC50: < 100 nM
S. aureus (ATCC29213); [1]
  MIC: 1 µg/mL (≈ 2.5 µM)

## Nc1c(/C=C/c2ccc(Cl)cc2)[nH]c2cc(Br)ccc12 [Compound 92, (E)-6-bromo-2-(4-chlorostyryl)-1H-indol-3-amine]
MRSA Pyk
  IC50: < 100 nM
VRE#2 (2010A)
  MIC: 32 µg/mL (≈ 92 µM)
S. aureus (ATCC29213); [1]
  MIC: 64 µg/mL (≈ 184 µM)

## O=C(c1c(/C=C/c2ccc(Cl)cc2)[nH]c2cc(Br)ccc12)N1CCNCC1 [Compound 25, (E)-(6-Bromo-2-(4-chlorostyryl)-1H-indol-3-yl)(piperazin-1-yl)methanone]
MRSA Pyk
  IC50: 100 to 1000 nM
S. aureus (ATCC29213); [1]
  MIC: 8 µg/mL (≈ 18 µM)

## ON=C(c1c(CCc2ccc(Cl)cc2)[nH]c2cc(Br)ccc12)C(F)(F)F (racemic) [Compound 46, 1-(6-Bromo-2-(4-chlorophenethyl)-1H-indol-3-yl)-2,2,2-trifluoroethanone Oxime]
MRSA Pyk
  IC50: > 1000 nM
S. aureus (ATCC29213); [1]
  MIC: 1 µg/mL (≈ 2.24 µM)

## FC(F)(F)c1c(CCc2ccc(Cl)cc2)[nH]c2cc(Br)ccc12 [Compound 66, 6-Bromo-2-(4-chlorophenethyl)-3-(trifluoromethyl)-1H-indole]
MRSA Pyk
  IC50: 100 to 1000 nM
S. aureus (ATCC29213); [1]
  MIC: 2 µg/mL (≈ 4.97 µM)

## CN1CCN(CCC(=O)c2c(/C=C/c3cn4ccccc4n3)[nH]c3cc(Br)ccc23)CC1 [Compound 8, (E)-1-(6-Bromo-2-(2-(imidazo[1,2-a]pyridin-2-yl)vinyl)-1H-indol-3-yl)-3-(4-methylpiperazin-1-yl)propan-1-one]
MRSA Pyk
  IC50: 100 to 1000 nM
S. aureus (ATCC29213); [1]
  MIC: 64 µg/mL (≈ 130 µM)

## O=C(NCc1ccccc1)c1c(/C=C/c2ccc(Cl)cc2)[nH]c2cc(Br)ccc12 [Compound 27, (E)-N-Benzyl-6-bromo-2-(4-chlorostyryl)-1H-indole-3-carboxamide]
MRSA Pyk
  IC50: < 100 nM
S. aureus (ATCC29213); [1]
  MIC: > 64 µg/mL

## O=C(NC1CCNCC1)c1c(/C=C/c2ccc(Cl)cc2)[nH]c2cc(Br)ccc12 [Compound 53, (E)-6-Bromo-2-(4-chlorostyryl)-N-(piperidin-4-yl)-1H-indole-3-carboxamide]
MRSA Pyk
  IC50: < 100 nM
S. aureus (ATCC29213); [1]
  MIC: 8 µg/mL (≈ 17.4 µM)

## O=C1NCCn2c(cc3cc(Cl)ccc32)-c2[nH]c3cc(Br)ccc3c21 [Compound 74, 12-Bromo-2-chloro-7,8-dihydro-6H-[1,4]diazocino[1,8-a:7,6-b′]diindol-9(14H)-one]
MRSA Pyk
  IC50: < 100 nM
VRE#2 (2010A)
  MIC: 64 µg/mL (≈ 154 µM)
S. aureus (ATCC29213); [1]
  MIC: 32 µg/mL (≈ 77.2 µM)

## O=C(Nc1ccc(Cl)cc1)Nc1nc2cc(Br)ccc2s1 [Compound 141, 1-(5-bromobenzo[d]thiazol-2-yl)-3-(4-chlorophenyl)urea]
MRSA (ATCC BAA-1762)
  MIC: 0.5 µg/mL (≈ 1.31 µM)
S. aureus (ATCC29213); [1]
  MIC: 0.5 µg/mL (≈ 1.31 µM)
